The source of these data is patent US20220127267A1, “THIENO[3,2-B] PYRROLE[3,2-D]PYRIDAZINONE DERIVATIVES AND THEIR USE AS PKM2 DERIVATIVES FOR THE TREATMENT OF CANCER, OBESITY AND DIABETES RELATED DISORDERS” (Agios Pharmaceuticals, Inc., priority 2019, published 2022).

The structures appear in SMILES notation.

The target in one assay is PKR K410E (Homo sapiens, UniProt P30613, K410E). Put plainly: PKR Mutant Assay (K410E), LDH-coupled, absorbance 340 nm. Conditions: mutant PKR K410E enzyme activation. Format: biochemical. Here is the method:
(§1) PKR (WT or mutant) enzyme stock solution was diluted to prepare a 1.25× Reaction Mix (without ADP). 1 μL of test compound was first added to the wells followed by 40 μL of 1.25× Reaction Mix (without ADP) and incubated at room temperature (25° C.) for 60 min. The reaction was initiated with 10 μL ADP, bringing the final Reaction Mix to 1x, and the reaction progress was measured as changes in absorbance at 340 nm wavelength at room temperature.
(§2) Test compound preparation: Test compounds were prepared at 50× final concentration in DMSO. 1 to 3 dilutions were made for 11 points (for example 50 μL of 5000 μM compound was added to 100 μL 100% DMSO to yield a 1667 μM, 50 μL of this added to 100 μL DMSO to yield 556 μM, and so forth). The compounds were added to the assay as a 1 to 50 dilution (1 μL in 50 μL) to yield a top concentration of 100 μM, decreasing 3-fold for 11 points.
(§3) Reaction Mix: PKR (1.25-1000 ng/well, 0.025-20 μg/ml depending on the PKR mutant), ADP (0.05-2.3 mM depending on the PKR mutant), PEP (0.031-2 mM depending on the PKR mutant), NADH (180 μM), LDH (0.005 U/μL, Sigma #L3888), 1 mM DTT, 0.03% BSA in 1× Reaction Buffer
(§4) Reaction Buffer: 100 mM KCl, 50 mM Tris pH 7.5, 5 mM MgCl2.

For the next assay, the system named is RBCs. The experiment in a line: Cell Based ATP Assay in purified red blood cells (Cell-Titer-Glo). More on the design: species or system human. Particulars: wild type PKR, ATP levels in RBCs, overnight at 37° C.; for AC50: Homo sapiens, Erythrocyte. Here is the method: Fresh blood drawn from healthy volunteers into K2EDTA tubes was collected. Whole blood was pelleted by spinning at 500 g for 10 minutes. The transfusion bag port was cut off Purecell leukocyte reduction neofilter (Fisher NC0267633) one (1) inch above filter. A 10 ml syringe barrel was attached to the remaining cut tubing attached to the neofilter. The plasma layer was removed from the pellet of the whole blood and the pellet was resuspended in 2× volume of phosphate buffered saline (PBS). 9 ml re-suspended blood cell pellet was transferred to a 10 ml syringe that was attached to the neofilter. The whole blood was allowed to gravity flow through filter until all fluid ran through upper tubing into a filter disc. The plunger was added to the syringe. The filter was inverted and air was plunged through the syringe filter system. A new 5 ml syringe was used to remove filtered RBCs from the bag by the syringe port. Purified RBCs were transferred to a 5 ml snap cap tube that had been incubated on ice. The 5 ml snap cap tube was spun at 500 g for 10 minutes at 15 C. Supernatant was aspirated and resuspended in AGAM (1×PBS, 1% glucose, 170 mg/L adenine, 5.25 g/L mannitol) at a density of 4×10^9 cells/mL.
For cell based ATP assays, the compound as described herein was prepared in 100% DMSO as a 10 mM stock. Serial dilutions (1:4) were performed in 96-well V-bottom storage plate and then added 1:100 to 96-well V-bottom plates containing AGAM. 10 μL/well of compound diluted in AGAM was added to black clear bottom assay plates. RBCs were diluted in AGAM media to a density of 1×10^7 cells/mL before added 90 μL/well to black clear bottom assay plates (final compound concentration at 0.1% DMSO concentration). Assay plates were sealed using aluminum foil seals and incubated overnight at 37° C. in a humidified chamber. ATP levels were read out using Cell-Titer-Glo (Promega).

The target of another assay is PK R510Q (Homo sapiens, UniProt P30613, R510Q). Put plainly: PKR Mutant Assay (R510Q), LDH-coupled, absorbance 340 nm. Particulars: mutant PKR R510Q enzyme activation. The assay is classed as biochemical. Here is the method: as §1, §2, §3, §4
PK R510Q, sequence (P30613 whole entry R510Q): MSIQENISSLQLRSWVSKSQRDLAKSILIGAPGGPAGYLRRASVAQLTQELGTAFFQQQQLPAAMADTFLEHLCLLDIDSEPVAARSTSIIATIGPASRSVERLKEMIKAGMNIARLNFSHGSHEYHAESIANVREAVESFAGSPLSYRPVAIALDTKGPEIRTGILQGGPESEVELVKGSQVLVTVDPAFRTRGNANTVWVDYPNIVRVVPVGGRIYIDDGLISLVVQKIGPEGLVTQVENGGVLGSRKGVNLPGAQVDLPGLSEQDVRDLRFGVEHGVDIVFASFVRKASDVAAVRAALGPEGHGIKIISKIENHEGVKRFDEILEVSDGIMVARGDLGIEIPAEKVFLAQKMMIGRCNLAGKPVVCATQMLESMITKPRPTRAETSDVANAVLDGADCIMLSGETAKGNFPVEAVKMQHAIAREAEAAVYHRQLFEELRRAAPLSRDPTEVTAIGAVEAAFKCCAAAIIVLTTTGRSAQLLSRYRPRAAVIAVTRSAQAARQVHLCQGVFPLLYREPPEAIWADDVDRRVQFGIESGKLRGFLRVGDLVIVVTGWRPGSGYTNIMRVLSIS
Another assay addresses PKR WT (Homo sapiens, UniProt P30613). Put plainly: PKR enzyme assay (WT), LDH-coupled, absorbance 340 nm. Particulars: wild type PKR enzyme activation. The assay is classed as biochemical. The procedure:
as §1, §2, §3, §4

PKR WT, sequence (P30613 whole entry): as the sequence (P30613 whole entry R510Q) above, with Q510R counted along it
PKR K410E, sequence (P30613 whole entry K410E): as the sequence (P30613 whole entry R510Q) above, with K410E, Q510R counted along it

Turning to `Cc1cccc(Cn2ncc3c4sc(Cc5ncco5)cc4n(C)c3c2=O)c1` [Cpd 5], the AC50 on PKR K410E is below 300 nM; with RBCs, at most 1000 nM; on PK R510Q, below 300 nM; at PKR WT, below 300 nM.
In the case of `Cn1c2cc(Cc3cccc4cn[nH]c34)sc2c2cnn(Cc3cscn3)c(=O)c21` [Cpd 6], the AC50 at PKR K410E was below 300 nM; with RBCs, at most 1000 nM; on PK R510Q, below 300 nM; on PKR WT, below 300 nM.
In the case of `Cn1c2cc(Cc3cscn3)sc2c2cnn(Cc3ccccn3)c(=O)c21` [Cpd 7], the concentration at half-maximal activity (AC50) on PKR K410E was below 300 nM; with RBCs, at most 1000 nM; at PK R510Q, below 300 nM; on PKR WT, below 300 nM.
Turning to `Cn1c2cc(Cc3cn[nH]c3)sc2c2cnn(Cc3cccc4[nH]ncc34)c(=O)c21` [Cpd 8], the “PKR K410E AC50” value on PKR K410E is recorded as “No Fit”. Further, the concentration at half-maximal activity (AC50) was at most 1000 nM in the assay with RBCs, below 300 nM at PK R510Q and below 300 nM at PKR WT.
`COc1cccc(Cn2ncc3c(c(C)n4cc(C)sc34)c2=O)c1` [Cpd 9]: the concentration at half-maximal activity (AC50) on PKR K410E is below 300 nM; in the assay on RBCs, above 1000 nM; at PK R510Q, below 300 nM; on PKR WT it was below 300 nM.
With `COc1cccc(Cn2ncc3c(c(C(F)(F)F)n4cc(C)sc34)c2=O)c1` [Cpd 10], the “PKR K410E AC50” value on PKR K410E is recorded as “No Fit”. Moreover, the “Cell based ATP assay AC50” value in the assay on RBCs is “No Fit”. In addition, on PK R510Q, the “PK R510Q AC50” value was “No Fit”. On PKR WT, this molecule showed a half-maximal activity concentration (AC50) below 300 nM.
Take `COc1cccc(Cn2ncc3c(c(C#N)n4cc(C)sc34)c2=O)c1` [Cpd 11]: the AC50 on PKR K410E, on PK R510Q and at PKR WT was below 300 nM throughout. Besides, in the assay on RBCs, the “Cell based ATP assay AC50” value was “No Fit”.
As to `COc1cccc(Cn2ncc3c(c(C(N)=O)n4cc(C)sc34)c2=O)c1` [Cpd 12], the AC50 at PKR K410E was below 300 nM; in the assay on RBCs it was above 1000 nM; at PK R510Q, below 300 nM; on PKR WT it was below 300 nM.
On to `COc1cccc(Cn2ncc3c(c(C#CCO)n4cc(C)sc34)c2=O)c1` [Cpd 13], for which the AC50 at PKR K410E, on PK R510Q and at PKR WT was 301 to 800 nM each time. The “Cell based ATP assay AC50” value in the assay with RBCs is given as “No Fit”.
Turning to `Cc1c2c(=O)n(Cc3ccn(C)n3)ncc2c2sc(CO)cn12` [Cpd 14], the half-maximal activity concentration (AC50) on PKR K410E is below 300 nM; in the assay with RBCs it was at most 1000 nM; on PK R510Q it was below 300 nM; at PKR WT, below 300 nM.
Take `Cc1c2c(=O)n(Cc3ccn(C)n3)ncc2c2sc(Cc3cc[nH]n3)cn12` [Cpd 15]: the AC50 on PKR K410E is below 300 nM; in the assay with RBCs, at most 1000 nM; on PK R510Q, below 300 nM; at PKR WT it was below 300 nM.
Turning to `Cc1c2c(=O)n(Cc3ccccn3)ncc2c2sc(Cc3cscn3)cn12` [Cpd 16], the half-maximal activity concentration (AC50) at PKR K410E was below 300 nM; in the assay on RBCs it was at most 1000 nM; at PK R510Q, below 300 nM; at PKR WT it was below 300 nM.
Turning to `Cc1c2c(=O)n(Cc3cccc(N)n3)ncc2c2sc(Cc3cc[nH]n3)cn12` [Cpd 17], the AC50 at PKR K410E is below 300 nM; with RBCs, at most 1000 nM; at PK R510Q, below 300 nM; at PKR WT it was below 300 nM.
For the molecule `Cc1c2c(=O)n(Cc3ccc4[nH]ncc4c3)ncc2c2sc(Cc3ccccn3)cn12` [Cpd 18], the AC50 on PKR K410E is below 300 nM; in the assay with RBCs, at most 1000 nM; at PK R510Q, below 300 nM; on PKR WT, below 300 nM.
Consider `Cc1c2c(=O)n(Cc3cccc(C#N)c3)ncc2c2sc(Cc3ncco3)cn12` [Cpd 19], for which the AC50 on PKR K410E was below 300 nM; with RBCs, above 1000 nM; at PK R510Q, above 800 nM; on PKR WT it was 301 to 800 nM.
On the same counts, the results for `Cc1c2c(=O)n(Cc3cscn3)ncc2c2sc(Cc3cccc4c[nH]nc34)cn12` [Cpd 20] are below 300 nM, at most 1000 nM, below 300 nM and below 300 nM.
For `Cc1cn2c(C)c3c(=O)n(Cc4ccn(C)n4)ncc3c2s1` [Cpd 21] the same measures were below 300 nM, at most 1000 nM, below 300 nM and below 300 nM.
With `Cc1cn2c(s1)c(C)c1c(=O)n(Cc3cc[nH]n3)ncc12` [Cpd 22], the AC50 at PKR K410E, at PK R510Q and on PKR WT was above 800 nM in each case. For the same molecule, the “Cell based ATP assay AC50” value with RBCs was “No Fit”.
Consider `Cc1c2c(=O)n(Cc3ccn(C)n3)ncc2n2cc(CO)sc12` [Cpd 23], for which the concentration at half-maximal activity (AC50) at PKR K410E is above 800 nM; in the assay on RBCs it was above 1000 nM; at PK R510Q, above 800 nM; on PKR WT, above 800 nM.
Consider `Cc1c2c(=O)n(Cc3ccn(C)n3)ncc2n2cc(Cc3cc[nH]n3)sc12` [Cpd 24], for which the AC50 at PKR K410E is below 300 nM; in the assay on RBCs, at most 1000 nM; at PK R510Q, below 300 nM; at PKR WT it was below 300 nM.
Consider `COc1cccc(Cn2ncc3c4c(cnn4C)n(C)c3c2=O)c1` [Cpd 27], for which the “PKR K410E AC50” value on PKR K410E was “No Fit”. In addition, at PK R510Q, the “PK R510Q AC50” value is listed as “No Fit”. The “PKR WT AC50” value on PKR WT is recorded as “No Fit”.
Consider `COc1cccc(Cn2ncc3c4nn(Cc5ccccc5)cc4n(C)c3c2=O)c1` [Cpd 28], for which the AC50 on PKR K410E is 301 to 800 nM; at PK R510Q it was below 300 nM; on PKR WT, 301 to 800 nM.
As for `COc1cccc(Cn2ncc3c4cccc(Br)c4n(C)c3c2=O)c1` [Cpd 33], the “PKR K410E AC50” value at PKR K410E is given as “Inhibition”. The “PK R510Q AC50” value at PK R510Q was “No Fit”. The “PKR WT AC50” value at PKR WT is “No Fit”.
In the case of `COC(=O)c1ccc2c3cnn(Cc4cccc(OC)c4)c(=O)c3n(C)c2c1` [Cpd 40], the half-maximal activity concentration (AC50) at PKR K410E is below 300 nM. Moreover, on PK R510Q, the “PK R510Q AC50” value was “No Fit”. Also, at PKR WT, the “PKR WT AC50” value is “No Fit”.
On to `COc1cccc(Cn2ncc3c4ccc(C#N)cc4n(C)c3c2=O)c1` [Cpd 47], for which the AC50 on PKR K410E was below 300 nM; on PK R510Q, below 300 nM; at PKR WT, 301 to 800 nM.
Regarding `Cn1c2ccc(S(=O)(=O)c3cc[nH]n3)cc2c2cnn(Cc3cccc(C(N)=O)c3)c(=O)c21` [Cpd 49], the half-maximal activity concentration (AC50) was below 300 nM on PKR K410E, at most 1000 nM in the assay with RBCs, below 300 nM on PK R510Q and below 300 nM on PKR WT.
Regarding `Cn1c2cc(S(=O)(=O)c3cc[nH]n3)ccc2c2cnn(Cc3cccc(C(N)=O)c3)c(=O)c21` [Cpd 50], the half-maximal activity concentration (AC50) on PKR K410E was above 800 nM; in the assay on RBCs, above 1000 nM; at PK R510Q it was below 300 nM; at PKR WT, 301 to 800 nM.
On the same counts, the results for `Cn1c2cc(S(C)(=O)=O)ccc2c2cnn(Cc3cccc(C(N)=O)c3)c(=O)c21` [Cpd 53] are 301 to 800 nM, above 1000 nM, below 300 nM and 301 to 800 nM.
For `Cn1c2cc(S(=O)(=O)c3ccccc3)ccc2c2cnn(Cc3cccc(C(N)=O)c3)c(=O)c21` [Cpd 54] the same measures were below 300 nM, above 1000 nM, below 300 nM and 301 to 800 nM.
For `Cn1cc(S(=O)(=O)c2ccc3c(c2)c2cnn(Cc4cccc(C(N)=O)c4)c(=O)c2n3C)cn1` [Cpd 55] the same measures were below 300 nM, above 1000 nM, below 300 nM and 301 to 800 nM.
On to `COc1cccc(Cn2ncc3c4ccncc4n(C)c3c2=O)c1` [Cpd 64], for which the AC50 is 301 to 800 nM at PKR K410E, below 300 nM on PK R510Q and 301 to 800 nM at PKR WT.
